Measured values taken from patent publication US20260306502A1, “MITOCHONDRIAL UNCOUPLERS FOR TREATMENT OF METABOLIC DISEASES AND CANCER” (Mito Biopharma, LLC, priority 2022, published 2026).
“Also recorded” adds a separate entry of the source.

Test system: carbon tetrachloride (CCl4)-induced liver fibrosis NASH murine model
Experiment: CCl4-induced liver fibrosis NASH murine model
Format: in vivo, mouse
Conditions: CCl4 mice
Method: CCl4 is a hepatotoxin that induces acute liver injury in mice and induces oxidative damage, inflammation, and liver fibrosis in mice, independent of liver steatosis, and thus is considered as a “pure” fibrotic model.
C57Bl6 male mice at the age of 7-8 weeks were randomized into 3 groups: vehicle, CCl4 alone treatment, CCl4 plus Compound treatment, n=7. CCl4 was diluted in olive oil (1:5 v/v), and intraperitoneally injected at a dose of 750 μl/kg to the mice, twice a week for 6 weeks. Compound treatment started at the beginning of CCl4 injection. At the end of treatment, the mice were euthanized and liver tissue was collected. For histology analyses, the liver tissue was fixed and paraffin embedded; tissue sections were stained with hematoxylin and eosin (H&E), or with Picrosirius red. The fibrosis severities were scored by a board-certified pathologist based on Picrosirius red stain of the liver. For immunoblotting analyses, the liver tissue was homogenized and the proteins were separated by native page gel electrophoresis. The levels of Collagen I and GAPDH were detected by Collagen I polyclonal antibody (Abcam ab34710) and GAPDH (14C10) Rabbit mAb (Cell signaling #2118).

COCCN(CCOC)Cc1cc(Cl)cc(C(=O)Nc2nc3ccc(C(F)(F)F)cc3s2)c1O [Compound 25, 3-((bis(2-methoxyethyl)amino)methyl)-5-chloro-2-hydroxy-N-(6-(trifluoromethyl)benzo[d]thiazol-2-yl)benzamide]
effect on fibrosis formation and fibrosis scores (7.5 mg/kg/day, 6 weeks): reduced fibrosis formation and improved fibrosis scores; also recorded: reduces fibrosis in CCl4 treated animals | effect on collagen levels (immunoblotting): reduces collagen levels
